A short description of data set [1]: in vivo. Particulars: female, NIH Swiss, mouse, in vivo, iv, 100 mg/kg.
Method: (§1) Analysis. […] All the solvents were of HPLC grade. Chromatography was performed on an Altech Hypersil ODS C18 (5 μm particle size, 4.5×150 mm, Altech Associates, Deerfield, Ill.).
(§2) In vivo pharmacokinetics: Female NIH Swiss mice (Harland Sprague-Dawley, Indianapolis, Ind.) weighing 24-28 g were used for the pharmacokinetic experiments.
(§3) At least three animals each were sacrificed at 0.08, 0.025, 0.5, 0.75, 1.0, 2.0, 3.0, 4.0, 5.0 and 6.0 hours after drug administration. Blood (serum) from the heart and whole-brain samples were collected. Serum samples were treated immediately and brain samples were frozen at −20° C. until analysis. To determine the nucleoside concentrations in the serum, a know amount of serum sample, 50 μL of the internal standard (AzdU, 5 μg/mL) and 1.0 mL of acetonitrile as a protein precipitant were added to polypropylene microcentrifuge tubes (1.7 mL). Tubes were mixed and centrifuged at 9,000 rpm for 10 minutes.
(§4) After homogenization, 1.8 mL of acetonitrile was added to tissue homogenates, samples were mixed and centrifuged at 9,000 rpm for 10 minutes. The resulting supernatant from the serum or the brain was transferred to a clean tube and dried under a stream of nitrogen gas at 22° C. The residue was reconstituted in 220 μL of mobile phase D and after centrifugation at 12,000 rpm for 40 min, 100-150 μL was injected for the HPLC analysis. […] After each assay, the column was equilibrated to initial conditions for 7 minutes.
(§5) The area under concentration (AUC) versus time profiles from time zero to the last measured concentration were determined by the linear trapezoidal rule and the AUC from the time of the last measured concentration to infinity was determined by dividing the last determined concentration by the least-squares elimination rate constant (λZ). […] The relative tissue exposure (re) of the compounds was calculated from AUCTissue/AUCserum.
For data set [2] the following is noted: mouse, in vivo, iv, 100 mg/kg.
Method: as §1, §2, §3, §4, §5
The nature of data set [3]: In vitro metabolism study of 6-AAP and ara-A in mouse liver homogenate, serum and brain homogenate.
Method: All the solvents were of HPLC grade. Chromatography was performed on an Altech Hypersil ODS C18 (5 μm particle size, 4.5×150 mm, Altech Associates, Deerfield, Ill.).
In vitro metabolism study. Female NIH Swiss mice (Harland Sprague-Dawley, Indianapolis, Ind.) were sacrificed and serum, liver and brain tissues were collected before each experiment. Serum was collected from several animals. The brain and liver were washed in normal saline at 4° C., wiped and then weighed. […] Samples and blanks of volume 400 μL were collected at 0, 5, 15, and 30 minutes and at 1, 2, 3, 4 and 5 hours.
To measure the analyte concentrations in serum, liver or brain homogenate, 400 μL of sample was mixed with 50 μL of internal standard (AzdU, 5 μg/mL) and 0.7 mL of acetonitrile. After centrifugation, the supernatant was decanted to another tube and treated with anhydrous Na2SO4, then vortexed for one minute and centrifuged again. The organic layer was separated and evaporated under nitrogen stream at room temperature. The residue was reconstituted in mobile phase A and filtered through MPS-I micropartition system (3KD membranes (Amicon Inc., Beverly, Mass.) by centrifugation for 50 minutes at 2000 rpm to further clean-up the samples. 100 μL of filtrate was injected for analysis.
For data set [4] the following is noted: in vivo; cited from earlier work.
For data set [5] the following is noted: mice; after oral and intravenous prodrug 2′-F-ara-ddP administration; cited from earlier work.
For the next data set, the system named is HIV-1. Particulars: relative to parent compounds ddA, ddI; cited from earlier work.
The nature of data set [6]: in vivo. The settings on record: female, NIH-Swiss, mouse, in vivo; for half-life: t½; for AUC: AUC0-τ. The text has this:
Animal studies. […] Animal studies were approved by the University of Georgia Animal Care and Use Committee and conducted in accordance with guidelines established by the Animal Welfare Act and the National Institutes of Health Guide for the Care and Use of Laboratory Animals. […] Animals were acclimatized to this environment for one week prior to the experiments.
At selected time intervals, mice (three animals per each time point) were anesthetized with diethyl ether and sacrificed by exsanguination via left ventricular heart puncture. Serum was harvested from blood collected. The brain was excised, rinsed with normal saline, blotted dry and weighed.
Analytical Methodology. […] The brain or liver tissue were homogenized in a 1:1 (g:mL) ratio with ice cold isotonic 0.05 M phosphate buffer, pH 7.4. […] Acetonitrile (600 μL) containing 0.1% acetic acid was added while vortexing to precipitate proteins. The tubes were centrifuged at 3,000 rpm for five minutes and the supernatant was transferred to a clean tube. Supernatant was evaporated to dryness under a stream of nitrogen gas at room temperature. The residual film was reconstituted in 110 μL of mobile phase and 50 μL was injected onto the HPLC.
Chromatographic separations were performed using a Hypersil ODS column 150×4.5 mm, 5 μm particle size (Alltech Associates, Deerfield, Ill.) preceded by a guard column packed with 30-40 μm pellicular Perisorb RP-18. Mobile phase flow rate was 2 mL/min. For the analysis of FAAddP and 2′-F-ara-ddA, the mobile phase consisted of 7% (v/v) acetonitrile in 80 mM sodium acetate, pH 5.0. […] Eluants were monitored at a UV wavelength of 260 nm.
Nucleoside standards ranging from 0.04 μg/mL to 100 μg/mL, prepared in blank PBS, serum, brain homogenate and liver homogenate were treated the same as unknown samples. Samples with nucleoside concentrations greater than 100 μg/mL were diluted with the appropriate blank matrix.
Data analysis in vivo studies. Nucleoside concentration as a function of time data were analyzed by a non-compartmental technique. […] Relative brain exposure (re) was calculated from AUCbrain/AUCserum.

Each structure is given as a SMILES string.

The AUC is the area under the concentration-time curve, a measure of exposure. The clearance is the volume of plasma or blood freed of the substance per unit of time. The half-life is the time in which the quantity being followed falls by half. Read a low half-life as fast loss. Broadly, the t½ is the time needed for the level to fall by half in the phase considered. Low values mean rapid decline, high ones slow decline.

Turning to `Nc1ncnc2c1ncn2[C@@H]1O[C@H](CO)[C@@H](O)[C@@H]1O` [ara-A, 9-(β-D-arabinofuranosyl)adenine, reference compound], in “in vivo [1]”, the AUC is 3950 ± 200 ng·h/mL. Besides, in “in vivo [1]”, the concentration at 25 minutes is 330 ± 250 ng/mL. Besides, in data set [2] (female, NIH Swiss), the “serum level, initial (declined from)” value stood at 18500 ± 3500 ng/mL. The “presence in the brain” value in data set [2] is given as “not found”. The values for the T1/2 in data set [3] (6-AAP incubated in mouse liver homogenate) and in data set [3] (Ara-A incubated in mouse liver homogenate) were 87.6 min and 2.4 min, respectively. Besides, in data set [3] (mouse liver homogenate), the “half-life of ara-A generated from 6-AAP alone, times greater than that of ara-A itself” value is reported as 36 times. Besides, the “half-life of ara-A” value in data set [4] is “four times longer”.

Turning to `O=c1[nH]cnc2c1ncn2[C@@H]1O[C@H](CO)C[C@@H]1F` [2′-F-ara-ddI, 2′-fluoro-2′,3′-dideoxyinosine], the AUCbrain/AUCserum ratio entry in data set [5] was “approximately 36%”. Also, the “potency in protecting CD4+ATH8 cells from cytopathogenic effects of HIV-1” value in the data set with HIV-1 was “as potent as the parent compounds”. For the same molecule, the clearance in “in vivo [6]” (iv) is 36.3 mL/min/kg. Moreover, in the data set “in vivo [6]” (iv, 20 mg/kg), the Kp was found to be 0.165 and the half-life is 24.6 min. In “in vivo [6]” (iv, 55 mg/kg), this molecule showed a t½ of 57.6 min and a half-life of 40.8 min. In “in vivo [6]” (iv, 112 mg/kg), the AUC/Dose amounted to 0.025 μM · h/μmol/kg, the area under the curve (AUC) worked out at 10.1 µM·h and the half-life is 31.2 min. Moreover, in the data set “in vivo [6]” (po, 55 mg/kg), the AUC/Dose came to 0.046 μM · h/μmol/kg, the AUC stood at 6.7 µM·h and the half-life was 175 min.

These data come from patent US6949521B2, “Therapeutic azide compounds” (priority 1995, dated 2005).
